Numbers after ± are expanded uncertainties.
Assay: cn = amount concentration of the nth substance listed, in mol/dm3
Conditions: 101.3 kPa, Liquid; for electrical conductivity: Alternating current cell with electrodes; for viscosity: Falling or rolling sphere viscometry; for mass density: Vibrating tube method

CC(N)C(=O)[O-].[Na+] (stereo not drawn) [sodium DL-alaninate] + O
Conditions	electrical conductivity [S/m]	mass density [kg/m3]	viscosity [mPa·s]
303.15 K, c1 = 0.478	–	–	0.98 ± 0.021
303.15 K, c1 = 0.498	2.82 ± 0.06	1021.4 ± 1.6	–
303.15 K, c1 = 0.985	–	1045.4 ± 1.7	–
303.15 K, c1 = 0.99	4.45 ± 0.09	–	–
303.15 K, c1 = 0.994	–	–	1.232 ± 0.027
303.15 K, c1 = 1.485	5.36 ± 0.11	–	–
303.15 K, c1 = 1.495	–	1069 ± 1.7	1.579 ± 0.036
303.15 K, c1 = 1.975	–	1090.8 ± 1.8	2.011 ± 0.049
303.15 K, c1 = 1.983	5.78 ± 0.12	–	–
303.15 K, c1 = 2.467	–	1113.1 ± 2	–
303.15 K, c1 = 2.476	5.77 ± 0.12	–	–
303.15 K, c1 = 2.496	–	–	2.683 ± 0.071
303.15 K, c1 = 3.032	–	–	3.708 ± 0.1
303.15 K, c1 = 3.048	5.43 ± 0.11	–	–
303.15 K, c1 = 3.063	–	1139.4 ± 2.1	–
308.15 K, c1 = 0.478	–	–	0.877 ± 0.019
308.15 K, c1 = 0.498	3.11 ± 0.07	1019.6 ± 1.6	–
308.15 K, c1 = 0.985	–	1043.4 ± 1.7	–
308.15 K, c1 = 0.99	4.92 ± 0.1	–	–
308.15 K, c1 = 0.994	–	–	1.099 ± 0.024
308.15 K, c1 = 1.485	5.94 ± 0.12	–	–
308.15 K, c1 = 1.495	–	1066.9 ± 1.7	1.423 ± 0.032
308.15 K, c1 = 1.975	–	1088.5 ± 1.8	1.771 ± 0.042
308.15 K, c1 = 1.983	6.45 ± 0.13	–	–
308.15 K, c1 = 2.467	–	1110.7 ± 2	–
308.15 K, c1 = 2.476	6.48 ± 0.13	–	–
308.15 K, c1 = 2.496	–	–	2.341 ± 0.061
308.15 K, c1 = 3.032	–	–	3.187 ± 0.086
308.15 K, c1 = 3.048	6.17 ± 0.12	–	–
308.15 K, c1 = 3.063	–	1136.8 ± 2.1	–
313.15 K, c1 = 0.478	–	–	0.796 ± 0.017
313.15 K, c1 = 0.498	3.42 ± 0.07	1017.7 ± 1.6	–
313.15 K, c1 = 0.985	–	1041.4 ± 1.7	–
313.15 K, c1 = 0.99	5.41 ± 0.11	–	–
313.15 K, c1 = 0.994	–	–	0.991 ± 0.022
313.15 K, c1 = 1.485	6.54 ± 0.13	–	–
313.15 K, c1 = 1.495	–	1064.7 ± 1.7	1.243 ± 0.028
313.15 K, c1 = 1.975	–	1086.1 ± 1.8	1.574 ± 0.038
313.15 K, c1 = 1.983	7.13 ± 0.14	–	–
313.15 K, c1 = 2.467	–	1108.2 ± 1.9	–
313.15 K, c1 = 2.476	7.22 ± 0.14	–	–
313.15 K, c1 = 2.496	–	–	2.06 ± 0.053
313.15 K, c1 = 3.032	–	–	2.765 ± 0.073
313.15 K, c1 = 3.048	6.94 ± 0.14	–	–
313.15 K, c1 = 3.063	–	1134 ± 2.1	–
318.15 K, c1 = 0.478	–	–	0.721 ± 0.016
318.15 K, c1 = 0.498	3.72 ± 0.08	1015.7 ± 1.6	–
318.15 K, c1 = 0.985	–	1039.3 ± 1.7	–
318.15 K, c1 = 0.99	5.89 ± 0.12	–	–
318.15 K, c1 = 0.994	–	–	0.895 ± 0.02
318.15 K, c1 = 1.485	7.14 ± 0.15	–	–
318.15 K, c1 = 1.495	–	1062.3 ± 1.7	1.122 ± 0.025
318.15 K, c1 = 1.975	–	1083.7 ± 1.8	1.405 ± 0.033
318.15 K, c1 = 1.983	7.82 ± 0.16	–	–
318.15 K, c1 = 2.467	–	1105.5 ± 1.9	–
318.15 K, c1 = 2.476	7.98 ± 0.16	–	–
318.15 K, c1 = 2.496	–	–	1.821 ± 0.046
318.15 K, c1 = 3.032	–	–	2.426 ± 0.064
318.15 K, c1 = 3.048	7.72 ± 0.16	–	–
318.15 K, c1 = 3.063	–	1131.3 ± 2.1	–
323.15 K, c1 = 0.478	–	–	0.661 ± 0.014
323.15 K, c1 = 0.498	4.04 ± 0.08	1013.4 ± 1.6	–
323.15 K, c1 = 0.985	–	1036.9 ± 1.7	–
323.15 K, c1 = 0.99	6.38 ± 0.13	–	–
323.15 K, c1 = 0.994	–	–	0.817 ± 0.018
323.15 K, c1 = 1.485	7.76 ± 0.16	–	–
323.15 K, c1 = 1.495	–	1059.8 ± 1.7	1.014 ± 0.023
323.15 K, c1 = 1.975	–	1081.1 ± 1.8	1.268 ± 0.03
323.15 K, c1 = 1.983	8.52 ± 0.17	–	–
323.15 K, c1 = 2.467	–	1102.8 ± 1.9	–
323.15 K, c1 = 2.476	8.73 ± 0.17	–	–
323.15 K, c1 = 2.496	–	–	1.629 ± 0.041
323.15 K, c1 = 3.032	–	–	2.146 ± 0.056
323.15 K, c1 = 3.048	8.52 ± 0.17	–	–
323.15 K, c1 = 3.063	–	1128.4 ± 2.1	–
328.15 K, c1 = 0.478	–	–	0.606 ± 0.013
328.15 K, c1 = 0.498	4.37 ± 0.09	1011.1 ± 1.6	–
328.15 K, c1 = 0.985	–	1034.5 ± 1.7	–
328.15 K, c1 = 0.99	6.87 ± 0.14	–	–
328.15 K, c1 = 0.994	–	–	0.75 ± 0.016
328.15 K, c1 = 1.485	8.38 ± 0.17	–	–
328.15 K, c1 = 1.495	–	1057.3 ± 1.7	0.924 ± 0.021
328.15 K, c1 = 1.975	–	1078.4 ± 1.8	1.148 ± 0.027
328.15 K, c1 = 1.983	9.22 ± 0.19	–	–
328.15 K, c1 = 2.467	–	1100.2 ± 1.9	–
328.15 K, c1 = 2.476	9.5 ± 0.19	–	–
328.15 K, c1 = 2.496	–	–	1.467 ± 0.037
328.15 K, c1 = 3.032	–	–	1.912 ± 0.049
328.15 K, c1 = 3.048	9.33 ± 0.19	–	–
328.15 K, c1 = 3.063	–	1125.4 ± 2.1	–
333.15 K, c1 = 0.478	–	–	0.559 ± 0.012
333.15 K, c1 = 0.498	4.68 ± 0.1	1008.7 ± 1.6	–
333.15 K, c1 = 0.985	–	1032 ± 1.7	–
333.15 K, c1 = 0.99	7.37 ± 0.15	–	–
333.15 K, c1 = 0.994	–	–	0.687 ± 0.015
333.15 K, c1 = 1.485	8.99 ± 0.18	–	–
333.15 K, c1 = 1.495	–	1054.6 ± 1.7	0.847 ± 0.019
333.15 K, c1 = 1.975	–	1075.7 ± 1.8	1.047 ± 0.025
333.15 K, c1 = 1.983	9.93 ± 0.2	–	–
333.15 K, c1 = 2.467	–	1097.2 ± 1.9	–
333.15 K, c1 = 2.476	10.3 ± 0.21	–	–
333.15 K, c1 = 2.496	–	–	1.326 ± 0.033
333.15 K, c1 = 3.032	–	–	1.718 ± 0.044
333.15 K, c1 = 3.048	10.1 ± 0.2	–	–
333.15 K, c1 = 3.063	–	1122.4 ± 2.1	–
338.15 K, c1 = 0.478	–	–	0.52 ± 0.011
338.15 K, c1 = 0.498	5.01 ± 0.1	1006 ± 1.6	–
338.15 K, c1 = 0.985	–	1029.3 ± 1.7	–
338.15 K, c1 = 0.99	7.87 ± 0.16	–	–
338.15 K, c1 = 0.994	–	–	0.638 ± 0.014
338.15 K, c1 = 1.485	9.62 ± 0.2	–	–
338.15 K, c1 = 1.495	–	1051.8 ± 1.7	0.778 ± 0.017
338.15 K, c1 = 1.975	–	1072.9 ± 1.8	0.96 ± 0.022
338.15 K, c1 = 1.983	10.7 ± 0.21	–	–
338.15 K, c1 = 2.467	–	1094.3 ± 1.9	–
338.15 K, c1 = 2.476	11 ± 0.22	–	–
338.15 K, c1 = 2.496	–	–	1.206 ± 0.03
338.15 K, c1 = 3.032	–	–	1.546 ± 0.039
338.15 K, c1 = 3.048	11 ± 0.22	–	–
338.15 K, c1 = 3.063	–	1119.4 ± 2.1	–
343.15 K, c1 = 0.478	–	–	0.484 ± 0.01
343.15 K, c1 = 0.498	5.34 ± 0.11	1003.1 ± 1.6	–
343.15 K, c1 = 0.985	–	1026.4 ± 1.7	–
343.15 K, c1 = 0.99	8.38 ± 0.17	–	–
343.15 K, c1 = 0.994	–	–	0.591 ± 0.013
343.15 K, c1 = 1.485	10.2 ± 0.21	–	–
343.15 K, c1 = 1.495	–	1049 ± 1.7	0.729 ± 0.016
343.15 K, c1 = 1.975	–	1069.9 ± 1.8	0.881 ± 0.02
343.15 K, c1 = 1.983	11.3 ± 0.23	–	–
343.15 K, c1 = 2.467	–	1091.2 ± 1.9	–
343.15 K, c1 = 2.476	11.8 ± 0.24	–	–
343.15 K, c1 = 2.496	–	–	1.102 ± 0.027
343.15 K, c1 = 3.032	–	–	1.408 ± 0.035
343.15 K, c1 = 3.048	11.8 ± 0.24	–	–
343.15 K, c1 = 3.063	–	1116.2 ± 2.1	–
